According to patent US11098061B2 (Celgene CAR LLC, priority 2013, dated 2021):

Columns and labels:
[1] = target: p38a activated, mitogen-activated protein kinase-activated protein kinase 2 (MAPKAP-K2 or MK-2) enzyme (Homo sapiens (Human), UniProt P49137); assay: MK2 Omnia continuous-read kinase assay for compound potency; type: biochemical; details: [MK-2]=0.4 nM, [ATP]=1.0 mM, [ST3-Sox]=10 μM
Procedure, shortened: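 Continuous Omnia fluorescence read (λex360/λem485) every 71 s after starting with 0.4 nM MK-2, with 1.0 mM ATP (appKM 8-10 μM) and 10 μM ST3-Sox substrate.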

MK2 [2] = target: T1, MK2 (Homo sapiens (Human), UniProt P49137); assay: MK2 cellular assay (Hsp27 phosphorylation in Thp-1 cells); type: cell-based; details: differentiated Thp-1 cells, compound 1 hour, 50 ng/ml LPS 15 minutes, phosphorylation of Hsp27; read-out: MK2EC50
Procedure, shortened: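 PMA-differentiated (10 ng/ml, 2 days) human Thp-1 monocytic cells given compound for 1 h, washed, then stimulated with 50 ng/ml LPS for 15 min. Hsp27 phosphorylation measured by western blot of lysates (20 μg protein); EC50 from dose-response inhibition.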

MK2 [3] = target: T1, MK2; assay: MK2 modification assessment by whole protein mass spectrometry; type: binding; details: intact MK2, 60 min, 10-fold excess of compound to protein
Procedure, shortened: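 MK2 treated with compound is analysed intact by MALDI-TOF after C4 cleanup in sinapinic acid matrix. Percent modification is the centroid mass shift against control MK2 divided by compound mass.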

TNFα release [4] = assay: IV mouse PD experiment (TNFα release after LPS); type: in vivo; details: CD-1 male mice, less than 10 mg/kg IV, 1 hour prior to LPS
Protocol: CD-1 male mice, approximately 5 weeks old were acquired from Charles River Laboratories. Animals were housed in ventilated cages with a 12/12 light cycle and provided rodent chow and water ad libitum. Mice were acclimated at least 1 week prior to study initiation (approximately 6 weeks old). Five (5) mice per group were predosed with one of the following compounds: II-14, III-32, III-8, III-4, II-27 and III-40 (intravenously by lateral tail vein), 1 hour prior to LPS administration. LPS (E.Coli 055:B5 from Sigma, Cat #L2880) was diluted in 0.9% sterile saline (Webster Veterinary Supply, Cat #07-883-6734) to a final concentration of 30 μg/mL. Animals were administered 15 μg in 0.5 mL/mouse (approximately 0.5 mg/kg LPS) intraperitoneally. One hour post LPS administration, the mice were sacrificed via CO2 and whole blood was collected by cardiac puncture. Blood was placed in EDTA K2 tubes (Braintree Scientific, Cat #MT-1395), inverted 3 times and placed on wet ice until centrifugation at 4° C. Plasma was collected and stored on dry ice until stored at −80° C. until processing. TNFα levels were quantified using the “Mouse TNF-alpha Ultra-Sensitive Kit” from mesoscale.com (catalog number K152BHC-2) in conjunction with an MSD plate reader.

TNFα release [5] = assay: PO mouse PD experiment (TNFα release after LPS); type: in vivo; details: CD-1 male mice, 30 mg/kg PO, 1 hour prior to LPS, read-out: % Inhibition of TNFa
Protocol: CD-1 male mice, approximately 5 weeks old were acquired from Charles River Laboratories. Animals were housed in ventilated cages with a 12/12 light cycle and provided rodent chow and water ad libitum. Mice were acclimated at least 1 week prior to study initiation (approximately 6 weeks old). Five (5) mice per group were predosed at 30 mg/kg PO with one of the following compounds: III-8, III-35, II-27, III-47, III-56, V-39, II-27, III-37, II-e-1, II-e-3, III-40, and V-58 (by oral gavage as a suspension in 0.5% methyl cellulose/0.25% Tween 80 in deionized water), 1 hour prior to LPS administration. LPS (E.Coli 055:B5 from Sigma, Cat #L2880) was diluted in 0.9% sterile saline (Webster Veterinary Supply, Cat #07-883-6734) to a final concentration of 30 μg/mL. Animals were administered 15 μg in 0.5 mL/mouse (approximately 0.5 mg/kg LPS) intraperitoneally. One hour post LPS administration, the mice were sacrificed via CO2 and whole blood was collected by cardiac puncture. Blood was placed in EDTA K2 tubes (Braintree Scientific, Cat #MT-1395), inverted 3 times and placed on wet ice until centrifugation at 4° C. Plasma was collected and stored on dry ice until stored at −80° C. until processing. TNFα levels were quantified using the “Mouse TNF-alpha Ultra-Sensitive Kit” from mesoscale.com (catalog number K152BHC-2) in conjunction with an MSD plate reader.

Chain of p38a activated, mitogen-activated protein kinase-activated protein kinase 2 (MAPKAP-K2 or MK-2) enzyme (P49137 whole entry): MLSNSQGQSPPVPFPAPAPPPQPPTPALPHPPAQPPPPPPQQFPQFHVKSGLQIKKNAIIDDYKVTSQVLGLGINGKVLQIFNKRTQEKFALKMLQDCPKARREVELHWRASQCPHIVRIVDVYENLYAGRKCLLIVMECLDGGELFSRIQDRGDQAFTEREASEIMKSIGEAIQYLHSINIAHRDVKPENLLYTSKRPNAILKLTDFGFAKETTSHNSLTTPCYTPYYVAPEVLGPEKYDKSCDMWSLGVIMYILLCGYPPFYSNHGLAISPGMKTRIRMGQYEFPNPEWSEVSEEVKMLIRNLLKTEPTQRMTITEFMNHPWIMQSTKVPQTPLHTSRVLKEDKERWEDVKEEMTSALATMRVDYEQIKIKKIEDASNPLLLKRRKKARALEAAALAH
T1 sequence (P49137 whole entry): as above

IC50 [1] [nM] | EC50 (MK2 [2]) [nM] | MK2 Mass Mod (MK2 [3]) | Structure (SMILES) | reduction in TNFα release compared to untreated control (TNFα release [4]) | inhibition in vivo at 30 mg/kg (TNFα release [5]) [%]
< 100 | < 100 | E (mass modification of ≥70%) | C=CC(=O)Nc1cc(-c2ccc3c(ccc4sc5c(c43)NC[C@@H](C)NC5=O)n2)ccc1C [III-37, (R)—N-(2-methyl-5-(10-methyl-8-oxo-9,10,11,12-tetrahydro-8H-[1,4]diazepino[5′,6′:4,5]thieno[3,2-f]quinolin-3-yl)phenyl)acrylamide] | – | ≤ 20
< 100 | < 100 | E (mass modification of ≥70%) | C=CC(=O)N1CC(C)(C)Oc2ccc(NC(=O)c3ccc4sc5c(c4c3)NC[C@@H](C)NC5=O)cc21 [III-32, (R)—N-(4-acryloyl-2,2-dimethyl-3,4-dihydro-2H-benzo[b][1,4]oxazin-6-yl)-3-methyl-5-oxo-2,3,4,5-tetrahydro-1H-benzo[4,5]thieno[3,2-e][1,4]diazepine-9-carboxamide] | greater than 90% | –
< 100 | 101 to 500 | E (mass modification of ≥70%) | C=CC(=O)Nc1cc(NC(=O)c2ccc3sc4c(c3c2)NC[C@@H](C)NC4=O)ccc1OCCN(C)C [III-35, (R)—N-(3-acrylamido-4-(2-(dimethylamino)ethoxy)phenyl)-3-methyl-5-oxo-2,3,4,5-tetrahydro-1H-benzo[4,5]thieno[3,2-e][1,4]diazepine-9-carboxamide] | – | ≤ 20
< 100 | < 100 | – | C=CC(=O)Nc1cc(-c2ccc3c(ccc4sc5c(c43)NC[C@@H](C)NC5=O)n2)ccc1OCCN(C)C [III-40, (R)—N-(2-(2-(dimethylamino)ethoxy)-5-(10-methyl-8-oxo-9,10,11,12-tetrahydro-8H-[1,4]diazepino[5′,6′:4,5]thieno[3,2-f]quinolin-3-yl)phenyl)acrylamide] | greater than 90% | ≤ 20
< 100 | < 100 | E (mass modification of ≥70%) | C=CC(=O)NC1CCCC1NC(=O)c1ccc2sc3c(c2c1)NC[C@@H](C)NC3=O (some centres unmarked) [III-47] | – | ≤ 20
< 100 | < 100 | E (mass modification of ≥70%) | C=CC(=O)Nc1cc(NC(=O)c2ccc3sc4c(c3c2)NC[C@@H](C)NC4=O)ccc1N1CCN(C)CC1 [III-4, (R)—N-(3-acrylamido-4-(4-methylpiperazin-1-yl)phenyl)-3-methyl-5-oxo-2,3,4,5-tetrahydro-1H-benzo[4,5]thieno[3,2-e][1,4]diazepine-9-carboxamide] | greater than 90% | –

Continued, molecule first:

Structure (SMILES) | IC50 [1] [nM] | EC50 (MK2 [2]) [nM] | MK2 Mass Mod (MK2 [3]) | reduction in TNFα release compared to untreated control (TNFα release [4]) | inhibition in vivo at 30 mg/kg (TNFα release [5]) [%]
C=CC(=O)Nc1cc(-c2cc3c(cn2)CCc2c-3[nH]c3c2C(=O)NCC3)cnc1OCCOC [II-14, N-(2-(2-methoxyethoxy)-5-(7-oxo-6,7,8,9,10,11-hexahydro-5H-pyrido[3′,4′:4,5]pyrrolo[2,3-f]isoquinolin-2-yl)pyridin-3-yl)acrylamide] | < 100 | < 100 | E (mass modification of ≥70%) | greater than 90% | –
C=CC(=O)N1c2cc(NC(=O)c3ccc4cc5n(c4c3)C3(CCC3)CNC5=O)ccc2OCC1(C)C [Compound V-58, N-(4-acryloyl-3,3-dimethyl-3,4-dihydro-2H-benzo[b][1,4]oxazin-6-yl)-1′-oxo-2′,3′-dihydro-1′H-spiro[cyclobutane-1,4′-pyrazino [1,2-a]indole]-7′-carboxamide] | < 100 | < 100 | E (mass modification of ≥70%) | – | ≤ 20
C=CC(=O)Nc1cc(-c2cc3c(cn2)CCc2c-3[nH]c3c2C(=O)NC2(CC2)C3)ccc1N1CCN(C)CC1 [II-27, N-(2-(4-methylpiperazin-1-yl)-5-(7′-oxo-5′,6′,7′,8′,10′,11′-hexahydrospiro[cyclopropane-1,9′-pyrido[3′,4′:4,5]pyrrolo[2,3-f]isoquinolin]-2′-yl)phenyl)acrylamide] | < 100 | < 100 | E (mass modification of ≥70%) | greater than 90% | ≤ 20
C=CC(=O)Nc1cc(-c2cc3c(ccc4c5c([nH]c43)CCC5=O)cn2)ccc1F [II-e-3, N-(2-fluoro-5-(7-oxo-7,8,9,1-tetrahydrocyclopenta[4,5]pyrrolo[2,3-f]isoquinolin-2-yl)phenyl)acrylamide] | – | – | – | – | ≤ 20
C=CC(=O)Nc1cccc2oc(-c3ccc4cc5n(c4c3)C3(CCC3)CNC5=O)nc12 [Compound V-39, N-(2-(1′-oxo-2′,3′-dihydro-1′H-spiro[cyclobutane-1,4′-pyrazino [1,2-a]indol]-7′-yl)benzo[d]oxazol-4-yl)acrylamide] | 101 to 500 | 101 to 500 | E (mass modification of ≥70%) | – | ≥ 81
C=CC(=O)Nc1cc(NC(=O)c2ccc3sc4c(c3c2)NC[C@@H](C)NC4=O)ccc1C1CCN(C)CC1 [III-56, (R)—N-(3-acrylamido-4-(1-methylpiperidin-4-yl)phenyl)-3-methyl-5-oxo-2,3,4,5-tetrahydro-1H-benzo[4,5]thieno[3,2-e][1,4]diazepine-9-carboxamide] | – | – | – | – | ≤ 20
C=CC(=O)Nc1cccc(-c2cc3c(ccc4c5c([nH]c43)CCC5=O)cn2)c1 [II-e-1, N-(3-(7-oxo-7,8,9,10-tetrahydrocyclopenta[4,5]pyrrolo[2,3-f]isoquinolin-2-yl)phenyl)acrylamide] | 101 to 500 | 501 to 999 | E (mass modification of ≥70%) | – | ≤ 20
